Where two headings read alike, the source gives them in different places.
Tests used:
CCRF-CEM cells = assay: Cell cycle arrest and cell death analysis by flow cytometry (propidium iodide, pH3Ser10); type: cell-based, human; conditions: % of positive cells
Description: Together with the CG-treated cells, a vehicle-treated sample was harvested at the same time point. After 24 h, the cells were washed with cold phosphate-buffered saline, fixed dropwise in 70% ethanol, and stored overnight at −20 °C. The cells were then washed with hypotonic citrate buffer, treated with RNAse (50 µg mL^−1), and stained with propidium iodide. Flow cytometry using a 488 nm laser (FACS-Calibur, Becton Dickinson, NJ, USA) was used for measurement. The cell cycle was analyzed by the ModFitLT program (Verity), and apoptosis was measured in a logarithmic model expressing the percentage of particles with a lower propidium content than cells in the G0/G1 phase (<G1) of the cell cycle in the CellQuest program (Becton Dickinson). Half of the sample was used to label cells with pH3^Ser10-FITC antibody (Exbio) for subsequent flow cytometry analysis of mitotic cells.

A549 = assay: MTS cytotoxic assay, A549; type: cell-based; conditions: Homo sapiens
Excerpt: (§1) If not indicated otherwise, the cell lines were purchased from the American Type Culture Collection (ATCC). […] K562 is the erythroid-myeloid precursor cell line derived from chronic myeloid leukemia carrying the BCR-ABL hybrid gene. A549, MCF-7, PC-3, 5637, U-2 OS, and MiaPaCa-2 are cells derived from lung, breast, prostate, bladder carcinoma, osteosarcoma, and pancreatic adenocarcinoma, respectively. HEK 293T are transformed human embryonic kidney cells, and L929 (Sigma, St. Louis, MS, USA) are transformed mouse fibroblasts. HCT116, cells from colorectal carcinoma, and their p53 gene knock-out variant (HCT116p53-/-) were purchased from Horizon Discovery. This cell line is a model of human tumors bearing p53 loss-of-function mutations or biallelic deletion of the p53 gene, frequently associated with poor prognosis. The MRC-5 and BJ cells were used as noncancerous cells; more specifically, they are human fibroblasts from the lungs and foreskin, respectively. According to the supplier’s recommendations, all cells were cultured at 37 °C in a 5% CO2 atmosphere and 100% humidity. The culture media used were: DMEM, RPMI 1640, and MEM (according to a cell line); all were supplemented with 5 g L^−1 glucose, 10% fetal calf serum, 2 mM glutamine, 100 U mL^−1 penicillin, 100 µg mL^−1 streptomycin, and NaHCO3. Cells were passaged every two or three days using 0.25% trypsin plus 0.01% EDTA (ethylenediamine tetraacetic acid) in phosphate-buffered saline.
(§2) To evaluate compound cytotoxicity, cells were seeded in 384-well microtiter plates in a volume of […]. The next day, aliquots of the tested derivatives were transferred with Echo550 acoustic liquid handler (Labcyte) to obtain dose response curves with dilution factor 4. The experiments were performed in technical duplicates and three or more biological replicates. After 72 h of incubation in a humidified incubator, […] of the MTS/PMS stock solution were pipetted into each well. After another 1–4 h of incubation, the absorbance at 490 nm was measured using an EnVision Multilabel Plate Reader (PerkinElmer).

CCRF-CEM = assay: MTS cytotoxic assay, CCRF-CEM; type: cell-based; conditions: Homo sapiens, 72 h
Excerpt: as §1, §2

MRC-5 = assay: MTS cytotoxic assay, MRC-5; type: cell-based; conditions: Homo sapiens
Excerpt: as §1, §2

PC-3 = assay: MTS cytotoxic assay, PC-3; type: cell-based; conditions: Homo sapiens
Excerpt: as §1, §2

5637 = assay: MTS cytotoxic assay, 5637; type: cell-based; conditions: Homo sapiens, 72 h
Excerpt: as §1, §2

MiaPaCa-2 = assay: MTS cytotoxic assay, MiaPaCa-2; type: cell-based; conditions: Homo sapiens
Excerpt: as §1, §2

MCF-7 = assay: MTS cytotoxic assay, MCF-7; type: cell-based; conditions: Homo sapiens
Excerpt: as §1, §2

HEK 293T = assay: MTS cytotoxic assay, HEK 293T; type: cell-based; conditions: Homo sapiens, 72 h
Excerpt: as §1, §2

HCT116 = assay: MTS cytotoxic assay, HCT116; type: cell-based; conditions: Homo sapiens
Excerpt: as §1, §2

[1] = tested on: rat vascular smooth muscle cells, endothelial cells, and astrocytes; set-up: method as in PMID 26067145; conditions: high concentrations of Ob (3–3000 μM) ref 54; cited from earlier work
SH-SY5Y cells = tested on: SH-SY5Y cells; set-up: method as in PMID 25838173; conditions: cited from earlier work

Structure (SMILES) | < G1 (apoptotic cells) (CCRF-CEM cells; 1 × IC50, 24 h) | G0/G1 (CCRF-CEM cells; 1 × IC50, 24 h) | G2/M (CCRF-CEM cells; 1 × IC50, 24 h) | M (Phospho-Histone3 (Ser10)) (CCRF-CEM cells; 1 × IC50, 24 h) | S (CCRF-CEM cells; 1 × IC50, 24 h) | < G1 (apoptotic cells) (CCRF-CEM cells; 5 × IC50, 24 h) | G0/G1 (CCRF-CEM cells; 5 × IC50, 24 h) | G2/M (CCRF-CEM cells; 5 × IC50, 24 h) | M (Phospho-Histone3 (Ser10)) (CCRF-CEM cells; 5 × IC50, 24 h) | S (CCRF-CEM cells; 5 × IC50, 24 h) | IC50 (A549; A549, 72 h) | IC50 (CCRF-CEM) | IC50 (MRC-5; MRC5, 72 h) | IC50 (PC-3; PC-3, 72 h) | IC50 5637 | IC50 (MiaPaCa-2; MIA PaCa-2, 72 h) | IC50 (MCF-7; MCF7, 72 h) | IC50 (HEK 293T; HEK-293T) | IC50 (HCT116; HCT-116, 72 h) | further results
CO[C@H]1C[C@H](O[C@H]2CC[C@]3(C=O)[C@H]4CC[C@]5(C)[C@@H](C6=CC(=O)OC6)CC[C@]5(O)[C@@H]4CC[C@]3(O)C2)O[C@H](C)[C@H]1O [Cy, cymarin] | 2.89% | 35.78% | 24.35% | 1.43% | 39.87% | 7.01% | 40.34% | 28.49% | 1.08% | 31.17% | 15 ± 1.8 nM | 14 ± 2.1 nM | 26 ± 2.4 nM | 26 ± 2.9 nM | 89 ± 5.5 nM | 44 ± 8.6 nM | 29 ± 8.1 nM | 3.02 ± 1.4 nM | 21 ± 2.5 nM | –
C[C@]12CC[C@H]3[C@@H](CCC4=C[C@@H](O[C@@H]5OC[C@@H](O[C@@H]6O[C@H](CO)[C@@H](O)[C@H](O)[C@H]6O)[C@H](O)[C@H]5O)CC[C@@]43C=O)[C@@]1(O)CC[C@@H]2C1=CC(=O)OC1 [Hyr, (3β)-3-[(4-O-β-D-glucopyranosyl-β-D-xylopyranosyl)oxy]-14-hydroxy-19-oxocarda-4,20(22)-dienolide] | 2.82% | 38.48% | 26.30% | 1.41% | 35.22% | 5.82% | 42.13% | 34.86% | 0.95% | 23.01% | 550 ± 38 nM | 660 ± 38 nM | 302 ± 43 nM | 756 ± 29 nM | 1510 ± 51 nM | 491 ± 23 nM | 566 ± 29 nM | 383 ± 8.9 nM | 670 ± 37 nM | –
C[C@@H]1O[C@@H](O[C@H]2C[C@@H](O)[C@]3(CO)[C@H]4[C@H](O)C[C@]5(C)[C@@H](C6=CC(=O)OC6)CC[C@]5(O)[C@@H]4CC[C@]3(O)C2)[C@H](O)[C@H](O)[C@H]1O [Ob, ouabain] | 20.68% | 40.42% | 33.80% | 1.73% | 25.78% | 33.31% | 33.94% | 25.27% | 0.63% | 40.80% | – | – | – | – | – | – | – | – | – | survival of rodent cells (in words) [1]: perfectly survived; IC50 (A549; A549, MTS, 72 h, read-out: IC50): 22 ± 0.94 nM; IC50 (CCRF-CEM; MTS, read-out: IC50): 32 ± 5.8 nM; IC50 (MRC-5; MRC5, MRC-5 noncancerous lung fibroblasts, MTS, 72 h, read-out: IC50): 39 ± 1.6 nM; IC50 (PC-3; PC-3, MTS, 72 h, read-out: IC50): 49 ± 1.4 nM; IC50 (5637; 5637, MTS, read-out: IC50): 110 ± 11 nM; IC50 (MiaPaCa-2; MIA PaCa-2, MiaPaCa-2, MTS, 72 h, read-out: IC50): 49 ± 2.01 nM; IC50 (MCF-7; MCF7, MCF-7, MTS, 72 h, read-out: IC50): 52 ± 5.6 nM; IC50 (HEK 293T; HEK 293T, MTS, read-out: IC50): 35 ± 1.2 nM; reduction of viability (SH-SY5Y cells; 24 h ref 53): 40%; reduction of viability (SH-SY5Y cells; 48 h ref 53): 10%; IC50 (HCT116; HCT-116, HCT116, MTS, 72 h, read-out: IC50): 30 ± 3.6 nM
C[C@]12CC[C@H]3[C@@H](CCC4=C[C@@H](O[C@@H]5OC[C@@H](O)[C@H](O)[C@H]5O)CC[C@@]43C=O)[C@@]1(O)CC[C@@H]2C1=CC(=O)OC1 [deHyr, deglucohyrcanoside] | 22.02% | 44.90% | 37.50% | 1.44% | 17.60% | 27.43% | 39.12% | 26.34% | 1.56% | 34.53% | 90 ± 14 nM | 110 ± 21 nM | 77 ± 12 nM | 122 ± 4.7 nM | 398 ± 46 nM | 120 ± 5.2 nM | 119 ± 6.4 nM | 38 ± 0.97 nM | 140 ± 16 nM | –

— publication PMC7827417, “Steroid Glycosides Hyrcanoside and Deglucohyrcanoside: On Isolation, Structural Identification, and Anticancer Activity” (Foods, 2021)
